One series has as its system SMN protein. In words: SMN protein assay (MSD) in SMA patient fibroblasts (GM03813). In kind it is cell-based, human. The procedure:
Compounds are tested on spinal muscular atrophy (SMA) patient fibroblasts (GM03813, Coriell) at doses ranging from 2.5 μM to 0.6 nM. 7000 cells/well are seeded in 96-well plates. Compounds are incubated for 48 hours and the cells were lysed with 100 μL of lysis buffer. 20 μL of lysate is used for SMN protein measurement by Mesoscale Discovery (MSD) assay developed by PharmOptima (Michigan). A standard curve prepared with SMN protein ranging from […] is used in each MSD plate to calculate the absolute SMN protein amount in each sample.

The test system of series [1] is MDR1-MDCK cell monolayers. As to conditions: dog, MDCK-MDR1, 120 min, 5 μM, pH 7.4.
The next series has as its system MDR1. Kind of series: in vitro. As to conditions: dog; for Papp A→B at 120 min, 5 μM: MDCK-MDR1, pH 7.4, MDCK-MDR1: Papp A-B (10^−6, cm/s); for Papp B→A at 120 min, 5 μM: MDCK-MDR1, pH 7.4, MDCK-MDR1: Papp B-A (10^−6, cm/s).
A further series deals with MDR1 (P-gp). Kind of series: MDCK-MDR1 permeability assay, blood-brain-barrier penetration potential. As to conditions: dog, MDCK-MDR1, pH 7.4, MDCK-MDR1 Efflux Ratio.

In turn, `COc1cc(-c2cc(O)c(-c3cnc(N(C)[C@H]4C[C@@H]5CCC(N5)[C@H]4F)cn3)cc2F)cc(F)n1` (single isomer, unassigned) [Compound 31E2] returned an EC50 in the series with SMN protein of 16 to 50 nM. In series [1], the “MDCK-MDR1: % Recov A-B (%)” value is reported as 59% and the “MDCK-MDR1: % Recov B-A (%)” value came to 67%. In the series with MDR1, this compound had a Papp A→B at 120 min, 5 μM of 0.33 ×10⁻⁶ cm/s and a Papp B→A at 120 min, 5 μM of 0.5 ×10⁻⁶ cm/s. For the same compound, the efflux ratio at 120 min, 5 μM in the series with MDR1 (P-gp) came to 2.
The compound `CN(c1cnc(-c2cc(F)c(-c3ccn(CF)c(=O)c3)cc2O)cn1)[C@H]1C[C@@H]2CCC(N2)[C@H]1F` (single isomer, unassigned) [Compound 32E2] showed an EC50 with SMN protein of 16 to 50 nM. For the same compound, in series [1], the “MDCK-MDR1: % Recov A-B (%)” value stood at 86% and the “MDCK-MDR1: % Recov B-A (%)” value worked out at 88%. Besides, in the series on MDR1, the Papp A→B at 120 min, 5 μM was found to be 2.58 ×10⁻⁶ cm/s and the Papp B→A at 120 min, 5 μM amounted to 51.2 ×10⁻⁶ cm/s. In addition, the efflux ratio at 120 min, 5 μM with MDR1 (P-gp) amounted to 20.
Compound `CN(c1cnc(-c2cc(F)c(-c3cc(=O)n(C)cn3)cc2O)cn1)[C@H]1C[C@@H]2CCC(N2)[C@H]1F` (single isomer, unassigned) [Compound 33E2] returned an EC50 in the series on SMN protein of 501 to 10000 nM. For the same compound, in series [1], the “MDCK-MDR1: % Recov A-B (%)” value was 91% and the “MDCK-MDR1: % Recov B-A (%)” value was found to be 99%. For the same compound, in the series on MDR1, the Papp A→B at 120 min, 5 μM worked out at 3.5 ×10⁻⁶ cm/s and the Papp B→A at 120 min, 5 μM stood at 62.7 ×10⁻⁶ cm/s. In addition, the efflux ratio at 120 min, 5 μM with MDR1 (P-gp) came to 18.
Regarding `Cn1cc(-c2cc(O)c(-c3cnc(N(C4CC4)[C@H]4C[C@@H]5CCC(N5)[C@H]4F)cn3)cc2F)cn1` (single isomer, unassigned) [Compound 35E2], in the series on SMN protein, the concentration for a half-maximal effect (EC50) fell in the range of 501 to 10000 nM. Further, in series [1], the “MDCK-MDR1: % Recov A-B (%)” value is 32% and the “MDCK-MDR1: % Recov B-A (%)” value came out at 61%. Besides, in the series on MDR1, the Papp A→B at 120 min, 5 μM amounted to 4.64 ×10⁻⁶ cm/s and the Papp B→A at 120 min, 5 μM came to 17.9 ×10⁻⁶ cm/s. In the series with MDR1 (P-gp), the efflux ratio at 120 min, 5 μM was 4.
For `COc1cc(-c2cc(O)c(-c3cnc(N(C4CC4)[C@@H]4CC5CC[C@H](N5)[C@@H]4F)cn3)cc2F)ccn1` (single isomer, unassigned) [Compound 36E1], the EC50 with SMN protein is 501 to 10000 nM. In series [1], the “MDCK-MDR1: % Recov A-B (%)” value was found to be 8% and the “MDCK-MDR1: % Recov B-A (%)” value worked out at 37%. Further, in the series with MDR1, the Papp A→B at 120 min, 5 μM turned out to be 0.52 ×10⁻⁶ cm/s and the apparent permeability from basolateral to apical (Papp B→A) at 120 min, 5 μM is 1.41 ×10⁻⁶ cm/s. Further, in the series on MDR1 (P-gp), the efflux ratio at 120 min, 5 μM is 3.
In turn, `COc1cc(-c2cc(O)c(-c3cnc(N(C4CC4)[C@H]4C[C@@H]5CCC(N5)[C@H]4F)cn3)cc2F)ccn1` (single isomer, unassigned) [Compound 36E2] returned an EC50 with SMN protein of 501 to 10000 nM. In addition, in series [1], the “MDCK-MDR1: % Recov A-B (%)” value was 10% and the “MDCK-MDR1: % Recov B-A (%)” value is given as 40%. In the series with MDR1, this compound displayed a Papp A→B at 120 min, 5 μM of 0.59 ×10⁻⁶ cm/s and a basolateral-to-apical permeability (Papp B→A) at 120 min, 5 μM of 1.3 ×10⁻⁶ cm/s. In addition, the efflux ratio at 120 min, 5 μM in the series with MDR1 (P-gp) was found to be 2.
In the case of `COc1cc(-c2cc(O)c(-c3cnc(N(C4CC4)[C@@H]4CC5CC[C@H](N5)[C@@H]4F)cn3)cc2F)cc(F)n1` (single isomer, unassigned) [Compound 37E1], in the series with SMN protein, the concentration giving a half-maximal response (EC50) is 501 to 10000 nM. Also, in series [1], the “MDCK-MDR1: % Recov A-B (%)” value was 18% and the “MDCK-MDR1: % Recov B-A (%)” value is 53%. In the series on MDR1, this compound yielded an apparent permeability from apical to basolateral (Papp A→B) at 120 min, 5 μM of 1.41 ×10⁻⁶ cm/s and a Papp B→A at 120 min, 5 μM of 2.73 ×10⁻⁶ cm/s. Also, in the series with MDR1 (P-gp), the efflux ratio at 120 min, 5 μM was determined as 2.
In the series on SMN protein, `COc1cc(-c2cc(O)c(-c3cnc(N(C4CC4)[C@H]4C[C@@H]5CCC(N5)[C@H]4F)cn3)cc2F)cc(F)n1` (single isomer, unassigned) [Compound 37E2] showed an EC50 of 501 to 10000 nM. In addition, in series [1], the “MDCK-MDR1: % Recov A-B (%)” value is given as 19% and the “MDCK-MDR1: % Recov B-A (%)” value is 45%. In the series with MDR1, this compound displayed a Papp A→B at 120 min, 5 μM of 0.94 ×10⁻⁶ cm/s and a Papp B→A at 120 min, 5 μM of 2.58 ×10⁻⁶ cm/s. Also, the efflux ratio at 120 min, 5 μM in the series with MDR1 (P-gp) turned out to be 3.
Take `Cn1ccc(-c2cc(O)c(-c3cnc(N(C4CC4)[C@@H]4CC5CC[C@H](N5)[C@@H]4F)cn3)cc2F)cc1=O` (single isomer, unassigned) [Compound 38E1]: the EC50 with SMN protein was in the range of 501 to 10000 nM. Moreover, in series [1], the “MDCK-MDR1: % Recov A-B (%)” value was 81% and the “MDCK-MDR1: % Recov B-A (%)” value is 94%. In the series on MDR1, this compound gave an apparent permeability from apical to basolateral (Papp A→B) at 120 min, 5 μM of 1.47 ×10⁻⁶ cm/s and a Papp B→A at 120 min, 5 μM of 54.9 ×10⁻⁶ cm/s. The efflux ratio at 120 min, 5 μM with MDR1 (P-gp) was 37.

The values are drawn from patent US11964971B2, “Methods and compositions for modulating splicing” (Skyhawk Therapeutics, Inc., priority 2019, dated 2024).
